Laboratory results from patent US20030134842A1, “METHODS FOR THE TREATMENT OR PREVENTION OF INFLAMMATORY DISEASES CHARACTERIZED BY ABNORMAL CELL PROLIFERATION” (priority 1997, published 2003).
Like-named read-outs stand apart in the source and are kept apart here.

Key:
Type in all cases: cell-based
[1] = system: NIH 3T3 mouse fibroblast cells; assay: Mitogenic assay (mitogen-induced cell proliferation); settings: for IC50: mitogen-induced cell proliferation
[2] = molecular target: T1, Ca2+-activated potassium channel (Gardos channel) of erythrocytes (Homo sapiens, UniProt O15554); assay: Gardos channel assay
T1 construct: endogenous in cells; host or cells: erythrocytes

A549 = assay: SRB antiproliferative assay A549; settings: Homo sapiens
Source text: (§1) The cells were passaged using Trypsin (Gibco).

MMRU = assay: SRB antiproliferative assay MMRU; settings: Homo sapiens
Source text: as §1

HT29 = assay: SRB antiproliferative assay HT29; settings: Homo sapiens
Source text: as §1

MCF7 = assay: SRB antiproliferative assay MCF7; settings: Homo sapiens
Source text: as §1

HEPG2 = assay: SRB antiproliferative assay HEPG2; settings: Homo sapiens
Source text: as §1

U118MG = assay: SRB antiproliferative assay U118MG; settings: Homo sapiens, U-118-MG; U118MG, 5% FCS/3 days; read-out: Test Compound IC50 Value in Cell Lines
Source text: as §1

HTB174 = assay: SRB antiproliferative assay HTB174; settings: HTB174 (Lung), 5% FCS/5 day incubation; read-out: Test Compound IC50
Source text: as §1

[3] = A549, A549, 5% FCS/2 days, read-out: Test Compound IC50 Value in Cell Lines
[4] = MMRU, 5% FCS/2 days, read-out: Test Compound IC50 Value in Cell Lines
[5] = HT-29, HT29, 5% FCS/2 days, read-out: Test Compound IC50 Value in Cell Lines
[6] = Mus musculus, NIH3T3, NIH 3T3 mouse fibroblast cells
[7] = MCF7 (Breast), 5% FCS/5 day incubation, read-out: Test Compound IC50
[8] = A549, A549 (Lung), 5% FCS/5 day incubation, read-out: Test Compound IC50
[9] = HEPG2 (Hepatocel), 5% FCS/5 day incubation, read-out: Test Compound IC50
[10] = MMRU (Melanoma), 5% FCS/5 day incubation, read-out: Test Compound IC50
[11] = HT-29, HT29 (Colon), 5% FCS/5 day incubation, read-out: Test Compound IC50

T1 sequence (O15554 whole entry): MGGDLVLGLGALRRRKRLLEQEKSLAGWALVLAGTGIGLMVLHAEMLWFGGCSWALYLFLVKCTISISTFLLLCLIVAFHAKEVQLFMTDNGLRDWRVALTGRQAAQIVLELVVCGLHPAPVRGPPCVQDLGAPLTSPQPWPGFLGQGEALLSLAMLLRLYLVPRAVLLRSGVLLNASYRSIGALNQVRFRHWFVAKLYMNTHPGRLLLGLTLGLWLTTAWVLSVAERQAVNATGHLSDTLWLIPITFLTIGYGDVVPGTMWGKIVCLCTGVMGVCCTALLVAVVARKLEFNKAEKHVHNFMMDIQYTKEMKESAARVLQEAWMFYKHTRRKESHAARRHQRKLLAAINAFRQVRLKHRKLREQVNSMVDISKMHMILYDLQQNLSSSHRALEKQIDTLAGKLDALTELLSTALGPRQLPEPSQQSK

SMILES	IC50 [2] [nM]	inhibition at 10 µM ([2]; 10 μM compound) [%]	IC50 (MCF7; [7]) [nM]	IC50 (A549; [8]) [nM]	IC50 (HEPG2; [9]) [nM]	IC50 (HT29; [11]) [nM]	IC50 [1, 6] [nM]	IC50 (HTB174) [nM]	IC50 (MMRU; [10]) [nM]	also measured
CN1Cc2ccccc2C(c2ccccc2Cl)c2ccccc21 (centres unmarked) [Compound 29]	–	–	–	–	–	–	–	–	–	Mitogenic Assay Inhibition ([1]; 10 µM compound, NIH 3T3 mouse fibroblast cells): 99.0%; IC50 ([1]; NIH 3T3 mouse fibroblast cells): 800 nM; Gardos Channel Assay Inhibition ([2]; 10 μM compound, 10 µM): 95.1%; IC50 (A549; [3]): > 10000 nM; IC50 (MMRU; [4]): > 10000 nM; IC50 (HT29; [5]): > 10000 nM
O=C(Nc1ccccc1)N1Cc2ccccc2C(c2ccccc2Cl)c2ccccc21 (centres unmarked) [Compound 32]	–	0	–	–	–	–	1100	–	–	IC50 (MCF7; MCF7, 5% FCS/3 days, read-out: Test Compound IC50 Value in Cell Lines): 5400 nM; IC50 (A549; A549, A549, 5% FCS/3 days, read-out: Test Compound IC50 Value in Cell Lines): 6900 nM; IC50 (HEPG2; HEPG2, 5% FCS/3 days, read-out: Test Compound IC50 Value in Cell Lines): 6200 nM; IC50 (MMRU; MMRU, 5% FCS/3 days, read-out: Test Compound IC50 Value in Cell Lines): 4900 nM; IC50 (HT29; HT-29, HT29, 5% FCS/3 days, read-out: Test Compound IC50 Value in Cell Lines): 6300 nM; IC50 (U118MG): 6800 nM
O=C(c1ccc(Cl)cc1)N1Cc2ccccc2C(c2ccccc2)c2ccccc21 (centres unmarked) [Compound 13]	–	0	2700	3100	1800	1500	1700	1400	1500	–
Clc1ccccc1C1c2ccccc2CN(Cc2ccccc2)c2ccccc21 (centres unmarked) [Compound 8]	–	0	–	–	–	–	2200	–	–	–
COc1cccc(C(=O)N2Cc3ccccc3C(c3ccccc3)c3ccccc32)c1 (centres unmarked) [Compound 17]	> 10000	20.6	4500	> 5000	2600	1700	1600	3600	2500	–
Clc1ccc2c(c1)C(c1ccccc1)c1cc3ccccc3cc1CN2 (centres unmarked) [Compound 15]	> 10000	9.5	–	–	–	–	–	–	–	–
c1ccc(CN2Cc3ccccc3C(c3ccccc3)c3ccccc32)cc1 (centres unmarked) [Compound 5]	> 10000	14.4	–	–	–	–	–	–	–	IC50 (A549; [3]): 1400 nM; IC50 (MMRU; [4]): > 10000 nM; IC50 (HT29; [5]): 1000 nM
Nc1ccc(C(=O)N2Cc3ccccc3C(c3ccccc3Cl)c3ccccc32)cc1 (centres unmarked) [Compound 34]	> 10000	12	2000	> 5000	1500	1600	4000	900	1200	IC50 (A549; [3]): > 10000 nM; IC50 (MMRU; [4]): > 10000 nM; IC50 (HT29; [5]): 6800 nM
O=C(c1ccccc1)N1Cc2ccccc2C(c2ccccc2)c2ccccc21 (centres unmarked) [Compound 16]	> 10000	0.45	4200	> 5000	3400	2600	1700	2600	2700	–
O=C(c1ccc2ccccc2c1)N1Cc2ccccc2C(c2ccccc2)c2ccccc21 (centres unmarked) [Compound 25]	> 10000	8.5	–	–	–	–	–	–	–	–
COc1ccc2c(c1)CN(C(=O)c1ccc(Cl)cc1)c1ccc(Cl)cc1C2c1ccccc1Cl (centres unmarked) [Compound 23]	> 10000	18.2	3100	3400	2300	2100	–	1800	2200	–

Further lines, with some results ahead:

IC50 [2] [nM]	inhibition at 10 µM ([2]; 10 μM compound) [%]	IC50 (MCF7; [7]) [nM]	IC50 (A549; [8]) [nM]	IC50 (HEPG2; [9]) [nM]	IC50 (HT29; [11]) [nM]	SMILES	IC50 [1, 6] [nM]	IC50 (HTB174) [nM]	IC50 (MMRU; [10]) [nM]	also measured
384	98.1	–	–	–	–	CN1Cc2ccccc2C(c2ccccc2Cl)c2ccccc21 (centres unmarked) [Compound 4]	1500	–	–	IC50 (MCF7; MCF7, 2% FCS/3 days, read-out: Test Compound IC50 Value in Cell Lines): 1700 nM; IC50 (A549; A549, A549, 2% FCS/3 days, read-out: Test Compound IC50 Value in Cell Lines): 11400 nM; IC50 (MMRU; MMRU, 2% FCS/3 days, read-out: Test Compound IC50 Value in Cell Lines): 4600 nM; IC50 (HT29; HT-29, HT29, 2% FCS/3 days, read-out: Test Compound IC50 Value in Cell Lines): 9700 nM
> 10000	52	–	–	–	–	COc1ccc2c(c1)CNc1ccc(Cl)cc1C2c1ccccc1Cl (centres unmarked) [Compound 19]	1600	–	–	–
71 to 99	98.3	2400	> 5000	4500	4800	O=C(Nc1ccc([N+](=O)[O-])cc1)N1Cc2ccccc2C(c2ccccc2Cl)c2ccccc21 (centres unmarked) [Compound 35]	–	4000	3100	IC50 (A549; [3]): > 10000 nM; IC50 (MMRU; [4]): > 10000 nM; IC50 (HT29; [5]): 10000 nM
> 10000	14.9	1800	1900	1400	700	Cc1ccc(C(=O)N2Cc3ccccc3C(c3ccccc3)c3ccccc32)cc1 (centres unmarked) [Compound 22]	3600	1400	900	–
> 10000	32 to 55	–	–	–	–	COc1cccc2c1C(c1ccccc1Cl)c1cc(Cl)ccc1N(C(=O)c1ccc(Cl)cc1)C2 (centres unmarked) [Compound 24]	–	–	–	–
> 10000	54.8	–	–	–	–	COc1ccc2c(c1)CNc1ccccc1C2(c1ccccc1)c1ccc(F)cc1 (centres unmarked) [Compound 12]	–	–	–	–
> 10000	9.5	–	–	–	–	O=C(O)C(=O)N1Cc2ccccc2C(c2ccccc2)c2ccccc21 (centres unmarked) [Compound 11]	–	–	–	–
775	75.2	–	–	–	–	c1ccc(C2c3ccccc3CNc3ccccc32)cc1 (centres unmarked) [Compound 1]	–	–	–	–
1300	99	–	–	–	–	CN1Cc2ccccc2C(c2ccccc2)c2ccccc21 (centres unmarked) [Compound 2]	5200	–	–	–
1530 to 1940	63	–	–	–	–	CCOC(=O)C(=O)N1Cc2ccccc2C(c2ccccc2)c2ccccc21 (centres unmarked) [Compound 10]	–	–	–	–
886	97.4	–	–	–	–	Clc1ccccc1C1c2ccccc2CNc2ccccc21 (centres unmarked) [Compound 3]	2400	–	–	–
> 10000	2.1	3500	4200	1900	1800	COc1ccc(C(=O)N2Cc3ccccc3C(c3ccccc3)c3ccccc32)cc1 (centres unmarked) [Compound 21]	2700	1900	1500	–
> 10000	35.8	–	–	–	–	CN1Cc2ccccc2C(c2ccccc2)c2cc(Br)ccc21 (centres unmarked) [Compound 7]	1600	–	–	IC50 (A549; [3]): > 10000 nM; IC50 (MMRU; [4]): > 10000 nM; IC50 (HT29; [5]): > 10000 nM
502 to 692	81.5	–	–	–	–	COc1cccc2c1C(c1ccccc1Cl)c1cc(Cl)ccc1NC2 (centres unmarked) [Compound 18]	2600	–	–	–
236	97.5	–	–	–	–	COC(=O)N1Cc2ccccc2C(c2ccccc2)c2ccccc21 (centres unmarked) [Compound 6]	–	–	–	IC50 (A549; [3]): > 10000 nM; IC50 (MMRU; [4]): 10000 nM; IC50 (HT29; [5]): > 10000 nM
